Active and inactive are the calls of the source.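 Rule for the calls: active = maximal percent inhibition of the deubiquitinase OTUD3 of at least 30% across the tested doses; inactive = the rest.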
Target: OTU domain-containing protein 3 (Homo sapiens) (UniProt Q5T2D3)
Assay: Validation of screening hits, potency titration, in vitro enzymatic, OTU domain-containing protein 3 DUB inhibitors (AID 1645868)
Conditions: purified OTUD3, ubiquitin-rhodamine cleavage fluorescence, 2 h

Sequence of OTU domain-containing protein 3 (Homo sapiens) (Q5T2D3 whole entry, looked up, the tested form may be a part): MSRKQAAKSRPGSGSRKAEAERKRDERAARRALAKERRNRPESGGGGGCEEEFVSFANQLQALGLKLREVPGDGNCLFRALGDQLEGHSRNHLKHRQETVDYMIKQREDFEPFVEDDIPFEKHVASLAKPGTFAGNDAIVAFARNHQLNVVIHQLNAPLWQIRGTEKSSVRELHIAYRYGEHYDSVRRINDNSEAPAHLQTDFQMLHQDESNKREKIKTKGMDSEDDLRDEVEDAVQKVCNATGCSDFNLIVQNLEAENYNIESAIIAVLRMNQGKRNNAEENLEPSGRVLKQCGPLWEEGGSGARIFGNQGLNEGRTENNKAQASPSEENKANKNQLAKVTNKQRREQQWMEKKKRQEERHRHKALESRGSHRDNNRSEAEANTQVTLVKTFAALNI

Row | SMILES | IC50
1 | O=C(NCc1ccc(F)cc1)N1CCC2(C1)Nc1cccnc1NC2=NCc1ccccc1 (stereo unspecified) | > 50 µM (inactive)
2 | COc1ccc(CNC(=O)CCc2nc3sc4c(c3c(=O)[nH]2)CCCCC4)cc1 | > 50 µM (inactive)
3 | O=C(Cn1c(=O)n(Cc2ccc3c(c2)OCO3)c(=O)c2ncccc21)c1ccccc1 | > 50 µM (inactive)
4 | Cc1cc(=O)n(C)c2c(O)c3c(cc12)c(C)cc(=O)n3C | > 50 µM (inactive)
5 | Cn1c(CCN2CCCC2)nc2cc(NS(=O)(=O)c3ccccc3)ccc21 | > 50 µM (inactive)
6 | Clc1cc2nc(N3CCN(c4ccccn4)CC3)c3nncn3c2cc1Cl | 4.78 µM
7 | COc1ccc(Nc2ncc(C(=O)Nc3ccc(Oc4ccccc4)cc3)c3ccccc23)cc1 | > 50 µM (inactive)
8 | CN=C(N)NCCC/C=C/CCCC(C)CC(C)C1OC(=O)/C=C/C(C)C(O)CC(O)C(C)C(O)CCC(C)C(O)CC2(O)OC(CC(OC(=O)CC(=O)O)CC(O)CC(O)C(C)C(O)/C=C/C1C)CC(O)C2O (stereo unspecified) | > 50 µM (inactive)
9 | c1csc(-c2nc(Nc3ccc4c(c3)CCC4)c3ccccc3n2)c1 | > 50 µM (inactive)
10 | CC[C@@]1(O)C[C@H](OC2CC(N(C)C)C(OC3CC(O)C(OC4CCC(=O)C(C)O4)C(C)O3)C(C)O2)c2c(cc3c(c2O)C(=O)c2c(O)ccc(O)c2C3=O)[C@H]1C(=O)OC (stereo partly specified) | > 5 µM (inactive)
11 | FC(F)(F)c1ccccc1CCN1CCc2nc3ncc(Cl)cc3cc2C1 | > 50 µM (inactive)
12 | CCOc1ccccc1C(=O)NCC(=O)OC(C(=O)c1c[nH]c2ccccc12)c1ccccc1 (stereo unspecified) | > 50 µM (inactive)
13 | Cc1ccc(CN2C(=O)c3cc4ccccc4n3CC2(C)C(=O)NCc2ccccc2)o1 (stereo unspecified) | > 50 µM (inactive)
14 | Cc1nn(C)c2c1[C@@H](c1ccc(F)cc1)[C@H](NC(=O)c1ccccc1)C(=O)N2 | > 50 µM (inactive)
15 | C[C@]12C(=O)N(c3ccc(C(=O)NCc4ccc(F)cc4)cc3)C(=O)N1CCc1c2[nH]c2ccccc12 | > 50 µM (inactive)
16 | Cc1nnc(C(=O)Nc2ccc(C(=O)NCc3ccccc3C)cc2)s1 | 28.5 µM
17 | CCOc1ccc(NC(=O)Cn2c(=O)n(CCC(=O)NCc3ccccc3OC)c(=O)c3ccccc32)cc1 | 15.4 µM
18 | O=C1C=CC(O)C2C1CC13SSC4(CC5C(=O)C=CC(O)C5N4C1=O)C(=O)N23 (stereo unspecified) | > 50 µM (inactive)
19 | CCOc1cc(C2C3=C(CC(C)(C)CC3=O)Nc3onc(C)c32)ccc1O (stereo unspecified) | > 50 µM (inactive)
20 | O=C(/C=C/c1ccc(F)cc1)N1CCC(Cc2ccccc2)CC1 | 49.9 µM
21 | CCOc1ccc2cc3c(nc2c1)OC(=O)N(Cc1ccc(C)o1)C3 | > 50 µM (inactive)

Row | SMILES | IC50
22 | Cc1ccc(Cn2c(=O)n(CCC(=O)NCCc3ccccc3)c(=O)c3ccccc32)cc1 | 18.6 µM
23 | O=C(Nc1ccc2c(c1)OCCO2)c1cccc2nc3ccccc3nc12 | 32.8 µM
24 | COc1ccc(CCNC(=O)CCCn2c(=O)c3ccccc3n(CC(=O)OCc3ccccc3)c2=O)cc1OC | 21.8 µM
25 | Cc1c(C)n(-c2ccccc2)c2ncn(CC(=O)N(C)Cc3ccccc3)c(=O)c12 | > 50 µM (inactive)
26 | CNC(=O)C1CN(C(=O)c2ccc(OC)cc2)CC12CCCC2 (stereo unspecified) | > 50 µM (inactive)
27 | COc1cccc(NC(=O)C2C3C=CC4(O3)C2C(=O)N(CCc2ccccc2Cl)C4C(=O)NC2CCCCC2)c1 (stereo unspecified) | 29.7 µM
28 | COc1ccc(NCc2cc(=O)n3[nH]c(NCc4ccc(C(C)C)cc4)nc3n2)cc1 | > 50 µM (inactive)
29 | Cc1cc(N2CCN(c3ncccn3)CC2)nc2ccc(NC(=O)c3ccncc3)cc12 | 31 µM
30 | CCCc1nc2sc3c(N(CC)CC)ncnc3c2c2c1CCC2 | > 50 µM (inactive)
31 | CCC(C)NC(=O)Cn1c(=O)n(-c2ccccc2)c(=O)c2ccc(C(=O)NCc3ccco3)cc21 (stereo unspecified) | 35.4 µM
32 | Cn1nccc1C(=O)N1CCCCC1c1ncc(Cc2ccc(Cl)cc2)o1 (stereo unspecified) | > 50 µM (inactive)
33 | O=C(OC1CSc2nc3ccccc3n2C1)c1ccc([N+](=O)[O-])o1 (stereo unspecified) | 25.7 µM
34 | CC1CCN(c2nnc(-c3nc(C4CC4)no3)c3ccccc23)CC1 | > 50 µM (inactive)
35 | CN(C(=O)c1ccncc1)[C@H]1CC[C@@]2(C)C[C@H](c3ccccc3)C[C@](C)(O2)[C@@H]1O | > 50 µM (inactive)
36 | NS(=O)(=O)c1ccc(NS(=O)(=O)c2ccc(NC(=O)Nc3ccc(Cl)cc3)cc2)cc1 | 38.2 µM
37 | CN(CCc1ccccc1)c1nccc(N2CCN(C(=O)c3csc(-c4cccnc4)n3)CC2)n1 | > 50 µM (inactive)
38 | Cc1cnc2nc3c(cc2c1)CN(CCc1ccc(Cl)cc1)CC3 | > 50 µM (inactive)
39 | COc1ccc2ncc3c(-c4ccc(C)cc4)nn(-c4ccc(F)cc4)c3c2c1 | > 50 µM (inactive)
40 | Cc1ccccc1NC(=O)Cn1cncc(-c2nc(-c3ccccc3)cs2)c1=O | > 50 µM (inactive)
41 | CC(=O)O[C@H]1[C@]2(O)C[C@]34SS[C@](CO)(C(=O)N3[C@@H]2C[C@@]12O[C@@H](C)C(C)(C)C2=O)N(C)C4=O | > 50 µM (inactive)
42 | CCc1c(Cl)c(O)c(Cl)c(O)c1C(=O)O[C@H]1C(C)O[C@@H](OC/C2=C\C=C\CC(O)/C(C)=C/C(CC)C(O[C@@H]3OC(C)(C)[C@H](O)C(OC(=O)C(C)C)[C@@H]3O)/C(C)=C/C(C)=C/CC(C(C)O)OC2=O)[C@@H](OC)C1O (stereo partly specified) | > 50 µM (inactive)

Row | SMILES | IC50
43 | Cc1ccccc1Cn1cc(SCC(=O)Nc2ccc3c(c2)OCCO3)c2ccccc21 | > 50 µM (inactive)
44 | Cc1ccc(S(=O)(=O)NCC(=O)OC(C(=O)Nc2cc(C)ccc2C)c2ccccc2)cc1 (stereo unspecified) | > 50 µM (inactive)
45 | Cc1cccc(N2CCN(C(=O)c3nnn(-c4ccc(F)cc4)n3)CC2)c1 | > 50 µM (inactive)
46 | O=C1NCCCC1Cc1ccc(-c2cccc(C(=O)N3CCc4ccccc4C3)c2)cc1 (stereo unspecified) | > 50 µM (inactive)
47 | CC(C(=O)NCc1ccc(F)cc1)n1cccc1C(=O)c1ccccc1 (stereo unspecified) | > 50 µM (inactive)
48 | COc1ncccc1CN1CCn2c(Cn3cncn3)cnc2C1C (stereo unspecified) | > 50 µM (inactive)
49 | CC(C)(C)c1cc(CCC(=O)Nc2c3c(nc4c2CCC4)CCCC3)cc(C(C)(C)C)c1O | > 50 µM (inactive)
50 | COc1cc(OC)c2c(c1)C(=O)C1=C(COC(C)(O)C1)C2=O (stereo unspecified) | > 50 µM (inactive)
51 | c1cnc(-c2n[nH]c(C3CCN(C4CCNC4)CC3)n2)cn1 (stereo unspecified) | > 50 µM (inactive)
52 | CC1CCN(Cc2nnc(-c3cn(CC(=O)NC4CCCCC4)c4ccccc34)o2)CC1 | > 50 µM (inactive)
53 | Cc1ccc(Cn2cc(-c3noc(-c4ccncc4)n3)nn2)cc1 | > 50 µM (inactive)
54 | O=C(/C=C/c1cnc2ccccc2c1)NCc1ccccc1 | > 50 µM (inactive)
55 | COc1ccc(NC(=O)c2ccc(Nc3nnc(C)c4ccccc34)cc2)cc1 | > 50 µM (inactive)
56 | Cn1ncc2c(=O)n(Cc3cccc(Cl)c3)cnc21 | > 50 µM (inactive)
57 | N#Cc1ccccc1COC(=O)c1ccc2ccccc2n1 | > 50 µM (inactive)
58 | COc1cccc(-c2nc3cnccn3c2NCc2ccc3c(c2)OCO3)c1 | > 50 µM (inactive)
59 | O=S(=O)(c1ccccc1)N1CCN2Cc3ccccc3N(Cc3ccccc3)CC2C1 (stereo unspecified) | > 50 µM (inactive)
60 | Fc1cc(F)c2[nH]cc(-c3nnnn3-c3ccc4ccccc4c3)c2c1 | 32.6 µM
61 | COc1ccc(C(=O)N2CCCC3(C2)Nc2cccnc2NC3=NC2CCCC2)cn1 (stereo unspecified) | > 50 µM (inactive)

Continued, values first:

Row | IC50 | SMILES
62 | > 50 µM (inactive) | O=C(Cc1ccc(Cl)c(Cl)c1)OCC(=O)c1c[nH]c2ccccc12
63 | > 50 µM (inactive) | Cc1nc2ccccc2nc1SCC(=O)Nc1ccc2c(c1)OCO2
64 | > 50 µM (inactive) | CN(c1ccccc1)c1nc(=O)n(CC(=O)Nc2ccc3c(c2)OCCO3)c2ccccc12
65 | > 50 µM (inactive) | Cc1ccc(NC(=O)c2ccn(COc3ccc(F)cc3)n2)nc1
66 | > 50 µM (inactive) | O=C(Nc1ccccc1)c1nc(-c2cn(Cc3ccc(F)cc3)nn2)no1
67 | > 50 µM (inactive) | COc1cnc(CSc2ncccn2)cc1OCC(=O)Nc1cc(C)ccc1C
68 | > 50 µM (inactive) | Cc1nc2cc(NC(=O)C3CN(C(=O)c4cnccn4)C3)ccc2s1
69 | > 50 µM (inactive) | CC(=O)c1cccc(NC(=O)c2ccc(-c3csc(C)n3)cc2)c1
70 | > 50 µM (inactive) | Oc1ccc(Br)cc1CNc1ccc(F)cc1
71 | 19.2 µM | O=C(COc1ccc(Cl)cc1Cl)Nc1ccc2[nH]c(=O)[nH]c2c1
72 | 31.4 µM | O=C(Nc1cc(-c2cccnc2)no1)c1ccc(F)c(F)c1
73 | > 50 µM (inactive) | Cc1c(-c2ccccc2)oc2c(C(=O)OCC(=O)Nc3ccccc3F)cccc2c1=O
74 | 22 µM | O=C(Nc1cccc(-c2nc3ccccc3[nH]2)c1)c1cc2ccccc2oc1=O
75 | > 50 µM (inactive) | O=c1ccc(-c2noc(Cc3cccc(Cl)c3)n2)c[nH]1
76 | 8.29 µM | COc1cc2c(cc1OC)-c1cc(Nc3ccc(Br)cc3)nc(=O)n1CC2
77 | > 50 µM (inactive) | N#Cc1ccc(NC(=O)COC(=O)c2ccc3ccccc3n2)cc1
78 | > 50 µM (inactive) | COc1ccc(OC)c(NC(=O)CSc2nc(C)nc3c2oc2ccccc23)c1
79 | > 50 µM (inactive) | COc1ccccc1CNC(=O)c1c(O)c2cnn(-c3cccc(C)c3)c2[nH]c1=O
80 | > 50 µM (inactive) | NS(=O)(=O)c1cc(C(=O)OCC(=O)c2ccc3c(c2)OCCO3)ccc1Cl
81 | > 50 µM (inactive) | COc1ccccc1NC(=O)c1nn(-c2cccc(F)c2)c(OC)cc1=O
82 | 25.1 µM | O=C1CC(C(=O)Nc2ccccc2F)n2nc(-c3ccccc3)cc2N1 (stereo unspecified)
83 | 34 µM | O=C1CC(C(=O)Nc2ccccc2Cl)n2nc(-c3ccccc3)cc2N1 (stereo unspecified)
84 | > 50 µM (inactive) | COc1ccc(C(C)=O)cc1CC(=O)Nc1nc2ccccc2[nH]1
85 | > 50 µM (inactive) | Cc1cc(C)cc(NC(=O)CSc2ccc(-c3ccncc3)nn2)c1
86 | 15.2 µM | Cn1c(=O)sc2cc(NC(=O)c3ccc(Br)cc3)ccc21
87 | > 50 µM (inactive) | O=C(Nc1cc(F)ccc1F)c1ccn(COc2ccc(F)c(Cl)c2)n1
88 | > 50 µM (inactive) | O=C(COC(=O)c1ccc(NS(=O)(=O)c2ccc3c(c2)OCCO3)cc1)NCc1ccc(Cl)cc1
89 | 33.5 µM | Cc1ccc(NCc2cc3c(C(C)(C)C)nn(-c4ccc(Cl)cc4)c3[nH]c2=O)cc1
90 | 33.8 µM | O=C(CNC(=O)c1cc2ccccc2o1)Nc1ccc2c(c1)OCCO2
91 | > 50 µM (inactive) | CCS(=O)(=O)N1CCc2cc(C(=O)Nc3ccc4c(c3)OCCO4)ccc21

Reference: PubChem BioAssay AID1645868 (Buhrlage Lab, Dana-Farber Cancer Institute and Novartis …, 2021)
